Measured values from patent US20090208445A1, “Compositions Comprising Eucalyptol And/Or Ocimene And/Or Farnesol For Use As Bumblebee Pheromones” (QUEEN MARY & WESTFIELD COLLEGE, priority 2005, published 2009).

What was measured:
Bombus terrestris [1] = test: Behavioural effect of individual compounds on forager recruitment (foragers leaving the nest in search for food); format: in vivo; details: 10 μl of 200 mg l-1 in acetone on filter paper in nest box lid every 5 min for 30 min vs preceding 30 min; 7 repeats, Wilcoxon test
Experimental: All experiments were performed with lab-reared colonies of Bombus terrestris with 30-50 workers. A total of ten colonies were used. Each nest was contained in a wooden box (26 cm·14 cm·10 cm), which was connected to a foraging arena (40 cm·60 cm·30 cm) with a Plexiglas tube of 30 cm length. Nest box and foraging arena had transparent Plexiglas covers, so that the behaviour of the bees could be observed. The arena contained a feeder at certain times of the experiment (see below).
To this end, 10 μl of solution of the individual compounds at 200 mg 1^−1 acetone, were dispensed onto a filter paper placed in a glass tube in the lid of the nest box. This was repeated every 5 minutes for half an hour, and numbers of foragers entering the flight arena in search for food were counted in 5 min intervals during the experimental half hour and in the preceding 30 min (control period). This experiment was repeated 7 times which each individual compound. In addition, 7 control runs were performed with acetone, to exclude the possibility that the solvent itself provoked a behavioural response. Tests were done in random sequence with three bumblebee colonies, with at least 4 h between tests on a single colony. None of the compounds were tested twice on the same day with the same colony.

Bombus terrestris [2] = test: Mobilisation of individually marked foragers of a colony by eucalyptol; format: in vivo
Experimental: To this end, all foragers were marked that arrived at an ad libitum sucrose feeder in a flight arena connected to a large nest (with >80 workers), over a period of two days. Bees were given individual number plates (Opalith). Then the colony was starved for 1 day, and on the next day, a sucrose feeder was inserted into the arena for one hour. After 30 min, the colony was exposed to eucalyptol as described above. Bees were caught immediately upon arrival, so that they could not provide feedback to the colony.

| Structure (SMILES) | Effect on numbers of foragers leaving the nest in search for food (Bombus terrestris [1]) | Time for the remaining foragers to arrive after exposure of the colony (Bombus terrestris [2]; 13 remaining of 17 active foragers) [min] | Forager force of the colony activated (Bombus terrestris [2]; colony with 17 active marked foragers, starved 1 day, eucalyptol inserted after 30 min) | Number of foragers arriving at the feeder after exposure of the colony (Bombus terrestris [2]; of 17 active foragers, 4 had arrived in the 30 min before exposure) [foragers] |
| --- | --- | --- | --- | --- |
| CC12CCC(CC1)C(C)(C)O2 [Eucalyptol, 1,3,3-Trimethyl-2-oxabicyclo[2.2.2.]octane] | strongest response | ≤ 15 | entire forager force of the colony was activated | 13 |
| CC(C)=CCCC(C)=CCCC(C)=CCO [E,E-farnesol, 3,7,11-trimethyl-2,6,10-dodecatrien-1-ol] | non-significant rise in activity |  |  |  |
